Literature values as cited in patent US20100144679A1, “MEDICATION KITS AND FORMULATIONS FOR PREVENTING, TREATING OR REDUCING SECONDARY FRACTURES AFTER PREVIOUS FRACTURE” (DUKE UNIVERSITY, priority 2007, published 2010).

Experiments:
[1] = patients with reduced creatinine clearances
bone resorption [2] = system: bone resorption
bone resorption [3] = system: bone resorption; remark: listed apart in the source

In the case of `C=C1/C(=C\C=C2/CCC[C@]3(C)[C@@H]([C@H](C)CCCC(C)(C)O)CC[C@@H]23)C[C@@H](O)C[C@@H]1O` [calcitriol], the fall rates [1] is given as “reduces fall rates”.

In the case of `O=P(O)(O)C(O)(Cn1ccnc1)P(=O)(O)O` [zoledronic acid, 1-hydroxy-2-(imidazol-1-yl)ethane-1,1-d-iphosphonic acid], the “untoward effects on bone formation or mineralization” value (bone resorption [2]; at the concentrations and doses that inhibit bone resorption) is listed as “without exerting any untoward effects on either bone formation or mineralization”, the “doses at which bone resorption is inhibited in vivo” value (bone resorption [2]; in vivo) is listed as 0.3 to 30 µg/kg and the “concentrations at which bone resorption is inhibited in vitro” value (bone resorption [3]) is listed as 0.3 to 30 nM.
